Like-named read-outs stand apart in the source and are kept apart here.
Experiments:
[1] = tested on: E.coli E96; test: In-vivo effect, CD50 in mice infected intraperitoneally with E.coli E96; conditions: Escherichia coli, E96, sc, subcutaneous at 1 and 5 hours post infection, no synergist, read-out: CD50 of amoxycillin alone
Description: The CD50 in mice infected intraperitoneally with E.coli E96 was determined. Amoxycillin and the synergists were dosed subcutaneously at 1 and 5 hours post infection. The synergists were used at 2 mg/kg.

[2] = tested on: Staph. aureus Russell; test: MIC of ampicillin alone or in presence of compound (synergistic activity, Demonstration 2), Staph. aureus Russell; assay type: cell-based; conditions: Staphylococcus aureus
Description: (§1) The MIC of ampicillin alone or in the presence of certain compounds of the invention was determined for certain Gram positive and Gram negative bacteria.

[3] = tested on: Proteus C889; test: MIC of ampicillin alone or in presence of compound (synergistic activity, Demonstration 1), Proteus C889; assay type: cell-based
Description: (§2) The minimum inhibitory concentration (MIC) of ampicillin alone or in the presence of certain compounds of the invention was determined for several strains of bacteria.

[4] = tested on: E.coli JT39; test: MIC of ampicillin alone or in presence of compound (synergistic activity, Demonstration 1), E.coli JT39; assay type: cell-based; conditions: Escherichia coli
Description: as §2

[5] = tested on: Staph. Russell; test: MIC of ampicillin alone or in presence of compound (synergistic activity, Demonstration 1), Staph. Russell; assay type: cell-based; conditions: Staphylococcus aureus
Description: as §2

[6] = tested on: E. coli JT39; test: MIC of ampicillin alone or in presence of compound (synergistic activity, Demonstration 2), E. coli JT39; assay type: cell-based; conditions: Escherichia coli
Description: as §1

[7] = tested on: Kleb. aerogenes E70; test: MIC of ampicillin alone or in presence of compound (synergistic activity, Demonstration 2), Kleb. aerogenes E70; assay type: cell-based; conditions: Klebsiella aerogenes
Description: as §1

[8] = tested on: Klebsiella E70; test: MIC of ampicillin alone or in presence of compound (synergistic activity, Demonstration 1), Klebsiella E70; assay type: cell-based, Kleb. aerogenes; conditions: E70, compound alone
Description: as §2

[9] = ampicillin alone, read-out: MIC of ampicillin alone
[10] = compound conc. 0 μg/ml, read-out: MIC Ampicillin (alone)
[11] = compound alone, read-out: MIC, compound alone
[12] = compound alone, E. coli JT39, read-out: MIC, compound alone

With `CC1(C)S[C@@H]2[C@H](NC(=O)[C@H](N)c3ccc(O)cc3)C(=O)N2[C@H]1C(=O)O` [Amoxycillin, amoxycillin] the ED50 [1] was greater than 1000 mg/kg.

`CC1(C)S[C@@H]2[C@H](NC(=O)[C@H](N)c3ccccc3)C(=O)N2[C@H]1C(=O)O` [Ampicillin, ampicillin, reference compound] was tested, and the MIC [2, 9] was 125 to 500 µg/mL, the “MIC Ampicillin (alone)” value ([3]; compound conc. 0 μg/ml) was 1000 µg/mL and the MIC [3, 10] was greater than 2000 µg/mL. It also gave an MIC ([4]; compound conc. 0 μg/ml, E.coli JT39, read-out: MIC Ampicillin (alone)) of 2000 µg/mL, an MIC [5, 10] of 500 µg/mL and an MIC [6, 9] of no less than 2000 µg/mL. For the same compound, the MIC [7, 9] was 500 to 2000 µg/mL.

Compound `O=C1CC(SC/C=C2\O[C@@H]3CC(=O)N3[C@H]2C(=O)O)N1` (some centres unmarked) [Example 2, Sodium 9-deoxy-9-thio-(azetidin-2'-on-4'-yl) clavulanate] has an MIC [2, 11] of 31.2 µg/mL, an MIC [3, 11] of 15 µg/mL and an MIC [4, 12] of 31.2 µg/mL. For the same compound, the MIC [5, 11] was 31.2 µg/mL, the MIC [8] was 15 µg/mL and the MIC [7, 11] was 16 µg/mL.

Compound `O=C(NCSC/C=C1\O[C@@H]2CC(=O)N2[C@H]1C(=O)O)c1ccccc1` [Example 6, Sodium 9-deoxy-9-thio (N-benzoylaminomethyl) clavulanate] has an MIC [2, 11] of 16 µg/mL, an MIC [3, 11] of 125 µg/mL and an MIC [4, 12] of 250 µg/mL. The MIC [5, 11] was 16 µg/mL, the MIC [8] was 500 µg/mL and the MIC [7, 11] was 500 µg/mL.

With `O=C(O)[C@H]1/C(=C/CSCN2CCCC2=O)O[C@@H]2CC(=O)N21` [Example 8, Sodium 9-(2-oxopyrrolidin-1-ylmethylthio)-9-deoxyclavulate] the MIC [2, 11] was 62.5 µg/mL, the MIC [6, 11] was 250 µg/mL and the MIC [7, 11] was 250 µg/mL.

With `O=C(O)[C@H]1/C(=C/CS(=O)(=O)CN2CCCC2=O)O[C@@H]2CC(=O)N21` [Example 10, Sodium 9-(2-oxopyrrolidin-1-ylmethylsulphonyl)-9-deoxyclavulanate] the MIC [2, 11] was 31.2 µg/mL, the MIC [6, 11] was 62.5 µg/mL and the MIC [7, 11] was 62.5 µg/mL.

Compound `CC(NC=O)SC/C=C1\O[C@@H]2CC(=O)N2[C@H]1C(=O)O` (some centres unmarked) [Example 13, Sodium 9-(1-formamidoethylthio)-9-deoxyclavulanate] has an MIC [2, 11] of 16 µg/mL, an MIC [6, 11] of 125 µg/mL and an MIC [7, 11] of 62.5 µg/mL.

Work on `CC(=O)NCSC/C=C1\O[C@@H]2CC(=O)N2[C@H]1C(=O)O` [Example 20, Sodium 9-(acetamidomethylthio)-9-deoxyclavulanate] yielded an MIC [2, 11] of 4 µg/mL, an MIC [6, 11] of 62.5 µg/mL and an MIC [7, 11] of 62.5 µg/mL.

With `CC(=O)NC[S+]([O-])C/C=C1\O[C@@H]2CC(=O)N2[C@H]1C(=O)O` (some centres unmarked) [Example 21, Sodium 9-(acetamidomethylsulphinyl)-9-deoxyclavulanate] the MIC [2, 11] was 125 µg/mL, the MIC [6, 11] was 62.5 µg/mL and the MIC [7, 11] was 125 µg/mL.

For `CC(=O)NCS(=O)(=O)C/C=C1\O[C@@H]2CC(=O)N2[C@H]1C(=O)O` [Example 22, Sodium 9-(acetamidomethylsuphonyl)-9-deoxyclavulanate], the MIC [2, 11] was 62.5 µg/mL, the MIC [6, 11] was 31.2 µg/mL and the MIC [7, 11] was 62.5 µg/mL.

Reference: US4427689A, “Clavulanic acid 9-deoxy-9-thia derivatives their preparation and use” (Beecham Group Limited, priority 1978, dated 1984)
